Reference: ChEMBL document CHEMBL1201862, “PubChem BioAssay data set” (2004)
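Where inhibition never reached the appropriate level, the endpoint shown equals the highest concentration tested. Otherwise, values were interpolated linearly from a five-concentration, 48-hour dose response in 96-well plates. Abbreviation: GI50, concentration required for 50% inhibition of growth.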 Calls of active or inactive are those of the source. Rule as the data show it: active = GI50 up to about 1.1 µM and inactive = higher. Non-standard residues stand in square brackets, D forms with d. Residues, ends and D or L forms follow the SMILES beside them. ξ: configuration not given here. *: point of attachment. NMeF = CN[C@@H](Cc1ccccc1)C(=O)O; ξNMeV = CNC(C(=O)O)C(C)C; Boc = CC(C)(C)OC(=O)*; OBn = c1ccc(CO*)cc1

How the values were obtained:
Assay in all cases: DTP human tumour cell line panel, 48 h
[1] = system: DMS-114
[2] = system: DMS-273
[3] = system: KM-20L2
[4] = system: M19-MEL
[5] = system: SNB-78
[6] = system: XF498
[7] = system: DLD-1
[8] = system: HOP-18
[9] = system: RXF 631

CCCCCC(CN1CCOCC1)C(=O)/C=C/c1ccccc1 (stereo not drawn)
GI50 [1]: 1.79 µM (inactive)
GI50 [2]: 2.31 µM (inactive)
GI50 [3]: 3.03 µM (inactive)
GI50 [4]: 2.41 µM (inactive)
GI50 [5]: 6.9 µM (inactive)
GI50 [6]: 1.72 µM (inactive)

Nc1ccc(C(=O)O)c2[nH]c3ccccc3c(=O)c12
GI50 [7]: > 100 µM (inactive)
GI50 [1]: > 100 µM (inactive)
GI50 [2]: > 100 µM (inactive)
GI50 [8]: > 100 µM (inactive)
GI50 [3]: > 100 µM (inactive)
GI50 [4]: > 100 µM (inactive)
GI50 [5]: > 100 µM (inactive)

CCOC(=O)c1cnc2[nH]c(=O)c3ccccc3n2c1=O
GI50 [7]: > 100 µM (inactive)
GI50 [2]: > 100 µM (inactive)
GI50 [8]: > 100 µM (inactive)
GI50 [3]: > 100 µM (inactive)
GI50 [4]: > 100 µM (inactive)
GI50 [9]: > 100 µM (inactive)
GI50 [5]: > 100 µM (inactive)
GI50 [6]: > 100 µM (inactive)

CCCC(N)C(=O)c1ccccc1 (stereo not drawn)
GI50 [7]: > 100 µM (inactive)
GI50 [1]: > 100 µM (inactive)
GI50 [2]: > 100 µM (inactive)
GI50 [8]: > 100 µM (inactive)
GI50 [3]: > 100 µM (inactive)
GI50 [5]: > 100 µM (inactive)
GI50 [6]: > 100 µM (inactive)

CCN(CC)CCCCC1CCN(CC(=O)N2c3ccccc3NC(=O)c3ccccc32)CC1
GI50 [7]: > 100 µM (inactive)
GI50 [1]: > 100 µM (inactive)
GI50 [2]: > 100 µM (inactive)
GI50 [4]: > 100 µM (inactive)
GI50 [9]: > 100 µM (inactive)
GI50 [5]: > 100 µM (inactive)
GI50 [6]: > 100 µM (inactive)

CC1CCCCc2nc3c(c(=O)n21)CCCC3 (stereo not drawn)
GI50 [7]: > 100 µM (inactive)
GI50 [2]: > 100 µM (inactive)
GI50 [3]: > 100 µM (inactive)
GI50 [4]: > 100 µM (inactive)
GI50 [9]: 29.4 µM (inactive)
GI50 [5]: > 100 µM (inactive)
GI50 [6]: > 100 µM (inactive)

C1COCCN1.S=C(S)N1CCOCC1
GI50 [7]: 0.628 µM (active)
GI50 [1]: 0.279 µM (active)
GI50 [2]: 1.38 µM (inactive)
GI50 [8]: > 100 µM (inactive)
GI50 [3]: 1.43 µM (inactive)
GI50 [4]: 1.25 µM (inactive)
GI50 [5]: 41.5 µM (inactive)
GI50 [6]: 1.92 µM (inactive)

CC1(C)c2ccccc2C(C)(C)C(C(=O)Nc2ccccc2)C1C(=O)O (stereo not drawn)
GI50 [7]: > 100 µM (inactive)
GI50 [1]: 91.6 µM (inactive)
GI50 [2]: > 100 µM (inactive)
GI50 [8]: > 100 µM (inactive)
GI50 [3]: > 100 µM (inactive)
GI50 [4]: > 100 µM (inactive)
GI50 [5]: > 100 µM (inactive)

NC(=O)CCC(Nc1c2ccccc2nc2ccccc12)C(=O)O (stereo not drawn)
GI50 [7]: 88.3 µM (inactive)
GI50 [2]: > 100 µM (inactive)
GI50 [3]: > 100 µM (inactive)
GI50 [4]: > 100 µM (inactive)
GI50 [9]: 77.3 µM (inactive)

COc1ccc2nc3cc(Cl)ccc3c(Sc3ccc([N+](=O)[O-])cc3C)c2c1
GI50 [7]: > 100 µM (inactive)
GI50 [1]: > 100 µM (inactive)
GI50 [2]: > 100 µM (inactive)
GI50 [8]: > 100 µM (inactive)
GI50 [3]: > 100 µM (inactive)
GI50 [4]: > 100 µM (inactive)
GI50 [5]: > 100 µM (inactive)
GI50 [6]: > 100 µM (inactive)

C=CCCCCCC(O)C(O)C/C=C\C/C=C\CC (stereo not drawn)
GI50 [7]: > 18.8 µM (inactive)
GI50 [1]: > 16.8 µM (inactive)
GI50 [2]: > 18.8 µM (inactive)
GI50 [8]: > 18.8 µM (inactive)
GI50 [3]: > 18.8 µM (inactive)
GI50 [5]: > 18.8 µM (inactive)
GI50 [6]: > 18.8 µM (inactive)

Clc1cc2n[se]nc2cc1Cl
GI50 [7]: > 100 µM (inactive)
GI50 [1]: > 100 µM (inactive)
GI50 [2]: > 100 µM (inactive)
GI50 [8]: > 100 µM (inactive)
GI50 [3]: > 100 µM (inactive)
GI50 [4]: > 100 µM (inactive)
GI50 [9]: > 100 µM (inactive)
GI50 [5]: > 100 µM (inactive)
GI50 [6]: > 100 µM (inactive)

[N-]=[N+]=NC1C(Cl)C(=O)NC(=O)N1[C@H]1C[C@H](O)[C@@H](CO)O1 (stereo partly drawn)
GI50 [7]: > 100 µM (inactive)
GI50 [1]: > 100 µM (inactive)
GI50 [2]: > 100 µM (inactive)
GI50 [3]: > 100 µM (inactive)
GI50 [9]: > 100 µM (inactive)
GI50 [5]: > 100 µM (inactive)
GI50 [6]: > 100 µM (inactive)

COC(=O)C(Cc1nc2ccccc2nc1C)/C(=N\NC(N)=O)C(=O)Nc1cccc([N+](=O)[O-])c1 (stereo not drawn)
GI50 [7]: > 100 µM (inactive)
GI50 [1]: 51.5 µM (inactive)
GI50 [8]: > 100 µM (inactive)
GI50 [3]: > 100 µM (inactive)
GI50 [4]: 37.9 µM (inactive)
GI50 [9]: > 100 µM (inactive)
GI50 [5]: > 100 µM (inactive)
GI50 [6]: > 100 µM (inactive)

COC(=O)C(C(=O)C(=O)Nc1ccc([N+](=O)[O-])cc1)c1nc2ccc([N+](=O)[O-])cc2nc1O (stereo not drawn)
GI50 [7]: > 100 µM (inactive)
GI50 [1]: 68.2 µM (inactive)
GI50 [2]: > 100 µM (inactive)
GI50 [8]: > 100 µM (inactive)
GI50 [3]: > 100 µM (inactive)
GI50 [4]: > 100 µM (inactive)
GI50 [9]: > 100 µM (inactive)
GI50 [5]: > 100 µM (inactive)

CN(c1nc(=[N+](C)C)ss1)C1CCCCC1
GI50 [7]: > 100 µM (inactive)
GI50 [1]: 32.1 µM (inactive)
GI50 [2]: > 100 µM (inactive)
GI50 [8]: > 100 µM (inactive)
GI50 [3]: > 100 µM (inactive)
GI50 [4]: > 100 µM (inactive)
GI50 [9]: > 100 µM (inactive)
GI50 [5]: > 100 µM (inactive)
GI50 [6]: > 100 µM (inactive)

CN(CCO)c1nc(=O)c2c([nH]1)CCC2
GI50 [7]: > 100 µM (inactive)
GI50 [1]: > 100 µM (inactive)
GI50 [2]: > 100 µM (inactive)
GI50 [8]: > 100 µM (inactive)
GI50 [3]: > 100 µM (inactive)
GI50 [4]: > 100 µM (inactive)
GI50 [5]: > 100 µM (inactive)
GI50 [6]: > 100 µM (inactive)

CC1=C(C(=O)Nc2c(C)cccc2C)C(c2ccc3c(c2)OCO3)C(C(=O)Nc2c(C)cccc2C)=C(C)N1
GI50 [7]: 19.3 µM (inactive)
GI50 [1]: 16.6 µM (inactive)
GI50 [8]: 18.9 µM (inactive)
GI50 [3]: 15.5 µM (inactive)
GI50 [9]: 16.7 µM (inactive)
GI50 [5]: 17.6 µM (inactive)

CC(C)C(C(=O)N1CCC[C@@H]1C(=O)OCc1ccccc1)N(C)C(=O)C(C(C)C)N(C)C(=O)[C@H](Cc1ccccc1)N(C)C(=O)[C@H](NC(=O)OC(C)(C)C)C(C)C (stereo partly drawn) (Boc-[dV][NMeF][ξNMeV][ξNMeV][dP]-OBn)
GI50 [7]: > 100 µM (inactive)
GI50 [1]: 8.57 µM (inactive)
GI50 [2]: 42.9 µM (inactive)
GI50 [8]: > 100 µM (inactive)
GI50 [3]: > 100 µM (inactive)
GI50 [4]: > 48.5 µM (inactive)
GI50 [5]: > 100 µM (inactive)
GI50 [6]: > 68.5 µM (inactive)

COC1=C(NC(C)=O)C(=O)c2nc3n(c2C1=O)CCC3
GI50 [7]: 15 µM (inactive)
GI50 [1]: 12.2 µM (inactive)
GI50 [2]: 18.7 µM (inactive)
GI50 [8]: 18.9 µM (inactive)
GI50 [3]: 38.3 µM (inactive)
GI50 [5]: 13 µM (inactive)
GI50 [6]: 19.1 µM (inactive)

CSc1nc(NC(=O)O)c(N(C(C)=O)C(=O)O)c(=O)n1C
GI50 [7]: > 100 µM (inactive)
GI50 [1]: > 100 µM (inactive)
GI50 [2]: > 100 µM (inactive)
GI50 [3]: > 100 µM (inactive)
GI50 [4]: > 100 µM (inactive)
GI50 [9]: > 100 µM (inactive)
GI50 [5]: > 100 µM (inactive)
GI50 [6]: > 100 µM (inactive)

C=C/C=C/NC(=O)OCc1ccccc1
GI50 [7]: > 100 µM (inactive)
GI50 [1]: > 100 µM (inactive)
GI50 [2]: > 100 µM (inactive)
GI50 [8]: > 100 µM (inactive)
GI50 [3]: > 100 µM (inactive)
GI50 [4]: > 100 µM (inactive)
GI50 [5]: > 100 µM (inactive)
GI50 [6]: > 100 µM (inactive)
